From patent publication US20120258938A1, “Enzymatic Production or Chemical Synthesis and Uses for 5,7-Dienes and UVB Conversion Products Thereof” (priority 2008, published 2012)

Tests used:
[1] = tested on: K562 human chronic myeloid leukemia cells; assay: Erythroid differentiation of K562 cells; format: cell-based; conditions: 10^-7 M, 7 days
Method: K562 human chronic myeloid leukemia (erythroleukemia) and MEL mouse erytholeukemia cells were cultured in RPMI 1640 containing 10% FBS and treated with the drugs at concentrations 0.1 μM. A 0.1% ethanol (EtOH) or 2% DMSO were used as negative or positive control, respectively to estimate the vehicle effect and the ability of the cells to differentiate. Media were exchanged every 72 h and drugs added every day. Growth of cultures was estimated by counting number of viable cells (trypan blue negative cells) as described previously.
To estimate erythroid differentiation (production of hemoglobin), first the number of benzidine positive cells was evaluated after 2 and 7 days in culture. Cells were centrifuged and washed four times with PBS and resuspended in 1 mL of fresh PBS. For hemoglobin determination, a benzidine staining solution was freshly prepared by mixing one part of 30% hydrogen peroxide, one part of base stock solution of 3% benzidine in 90% acetic acid, and 5 parts of water. The solution was diluted 1:10 with the cell suspension and aliquoted in 4 wells in 24-well plate (250 μl each). After 10 min of incubation at RT benzidine-positive cells were counted under the microscope with a minimum of 200 cells scored.
Second, to define spectrophotometrically relative content of hemoglobin, equal number of cells (7×106) were washed with cold PBS and lysed for 20 min in 100 μL of lysis buffer (0.2% Triton X-100 in […] potassium phosphate buffer, pH 7.8). The lysates were centrifuged for 15 min at 1500 r.p.m. and 100 μL of the supernatant was incubated with 2 mL of benzidine solution (5 mg/mL in glacial acetic acid) and 2 ml 30% H2O2 for 10 min increases in comparison with the level of hemoglobin in mock-induced K562 or MEL cells.

[2] = tested on: human radial growth phase amelanotic melanoma WM35 cells; assay: Viability of WM35 melanoma cells; format: cell-based; conditions: WM35, 24 h
Method: Cells were seeded in 96-well plate and incubated with 20-hydroxycholecalciferol in DMEM medium containing 5% FBS for 48 h (FIG. 25A) or 72 h (FIG. 25C) or for 24 h after a 12 h synchronization in serum free medium (FIG. 25D). […] was added for a final 18 h (FIGS. 25A, 25D) or 12 h (FIG. 25C) of incubation or cells were assessed with sulforhodamine assay (FIG. 25C). Data is shown as mean±SEM (n=5; FIG. 24C) or mean±SEM (n=6; FIGS. 24A, 24C, 24D) and was analyzed using GraphPrism 4.0.

[3] = tested on: MG-63; assay: Flow cytometry cell cycle and subG1, MG-63; format: cell-based, human; conditions: MG-63, 24 h
Method: (§1) MD-MBA-231, MG-63, PC-3, and WM164 cells were seeded into Petri dishes and then incubated for 24 h with 20-hydroxycholecalciferol in DMEM medium containing 5% FBS. Then cells were fixed, DNA stained and samples read with flow cytometer as described (7). Data was analyzed with Cell Quest (BD Biosciences). Cell cycle phases were assessed in viable cell populations and subG1 contents were calculated within whole cell population.

[4] = tested on: PC-3; assay: Flow cytometry cell cycle and subG1, PC-3; format: cell-based, human; conditions: PC-3, 24 h
Method: as §1

[5] = molecular target: T1, CYP27A1 (Homo sapiens, UniProt Q02318); assay: Metabolism by CYP27A1 (cyclodextrin or phospholipid vesicles)
T1 sequence (Q02318 34-531): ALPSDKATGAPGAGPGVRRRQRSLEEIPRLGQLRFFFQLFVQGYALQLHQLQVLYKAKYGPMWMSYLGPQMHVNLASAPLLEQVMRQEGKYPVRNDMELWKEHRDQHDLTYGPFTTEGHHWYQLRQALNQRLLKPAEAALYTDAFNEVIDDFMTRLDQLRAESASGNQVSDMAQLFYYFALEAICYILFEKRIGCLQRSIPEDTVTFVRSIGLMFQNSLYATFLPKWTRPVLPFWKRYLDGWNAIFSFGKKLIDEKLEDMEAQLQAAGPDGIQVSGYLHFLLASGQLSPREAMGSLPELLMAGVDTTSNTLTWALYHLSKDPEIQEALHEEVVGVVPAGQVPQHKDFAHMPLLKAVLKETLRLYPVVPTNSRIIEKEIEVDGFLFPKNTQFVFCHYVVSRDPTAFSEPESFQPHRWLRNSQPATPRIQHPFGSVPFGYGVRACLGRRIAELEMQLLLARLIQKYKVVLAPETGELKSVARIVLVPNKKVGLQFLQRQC
Method: To test enzymatic metabolism of 20S(OH)D3 and 20R(OH)D3, the substrates were incorporated into phospholipid vesicles with the ratio of substrate to phospholipid being 0.025 mol/mol phospholipid. Vesicles were incubated with 2 μM bovine CYP11A1 or 0.06 μM human CYP27B1 for up to 10 min. To test enzymatic metabolism of 20(OH)D3 in CYP24, the substrate was incorporated into phospholipids vesicles with 0.15-0.5 μM CYP24. To test enzymatic metabolism of 20(OH)D3 in CYP27A1, purified CYP27A1 was preincubated with the vesicles for 6 min at 37° C. Adrenodoxin was added last to initiate the reaction. For kinetic experiments, the incubations were typically 0.5 mL and were carried out over the initial linear period of the reaction (10 min for vitamin D3 and cholesterol and 30 min for 20(OH)D3).
Kinetic characterization of the metabolism of 20(OH)D3 by CYP27A1 was carried out with substrate dissolved in either cyclodextrin or phospholipid vesicle. Vitamin D3 and 20(OH)D3 were incubated with 0.4 μM CYP27A1 and 1 μM CYP27A1, respectively, for 10 and 30 min. The products were analyzed by reverse phase HPLC. The hyperbolic curves were fitted using the equation v/[E]=(kcat—[S])/(Km+[S]) where v is reaction velocity, [E] is the CYP27A1 concentration, and [S] the substrate concentration.

**Q.** For `C=C1CC[C@H](O)C/C1=C/C=C1\CCC[C@]2(C)[C@@H](C(C)=O)CC[C@@H]12` [pD3, (5Z,7E)-3β-hydroxy-9,10-secopregna-5,7,10(19)-trien-20-one], which “differentiation of K562 cells” value [1] is on record?
**A.** The value was “induce differentiation”.

**Q.** What does the source list for `C=C1CC[C@H](O)C/C1=C/C=C1\CCC[C@@]2(C)[C@H]1CC[C@@H]2[C@@](C)(O)CCCC(C)C` [20(OH)D3, (5Z,7E)-9,10-secocholesta-5,7,10(19)-triene-3β,20-diol]?
**A.** concentration above which viability started declining [2]: greater than 1×10^−7 M; G0/G1 of viable cells [3]: 52%; G2/M of viable cells [3]: 15; S of viable cells [3]: 33%; Viable Cells [3]: 18; subG1 ([3]; whole cell population): 82; G0/G1 of viable cells [4]: 24%; G2/M of viable cells [4]: 0; S of viable cells [4]: 76%; Viable Cells [4]: 4; subG1 ([4]; whole cell population): 96; kcat ([5]; cyclodextrin): 0.78 ± 0.02 min⁻¹; kcat ([5]; phospholipid vesicles): 0.755 ± 0.06 min⁻¹
